Assay results taken from paper PMC7595212, “Functional interaction between Ghrelin and GLP-1 regulates feeding through the vagal afferent system” (Scientific Reports, 2020).

Tests used:
[1] = test system: NG neurons; test: Whole-cell voltage-clamp (patch-clamp) of NG neurons; format: cell-based, mouse; settings: whole-cell voltage clamp -80 to 40 mV, 10 nM peptide, Ghsr- and Glp1r-expressing NG neurons, n = 10
Experimental: NG neurons were perfused in the bath solution (Composition in mmol L^−1: NaCl 126.2, KCl 3.1, MgCl2 2, CaCl2 2, HEPES 10, glucose 10; pH 7.39, osmolarity 320 mOsm) with 10 nM ghrelin or 10 nM GLP-1. Whole-cell recordings were performed using patch pipettes of 3.5–5 MΩ resistance backfilled with a solution (Composition in mmol L^−1: K gluconate 125, KCl 8, MgCl2 4, HEPES 10, ATP 2, GTP 0.4, Na2-creatine phosphate 5; pH 7.23, osmolarity 300 mOsm). After obtaining a giga-seal, membrane access resistance was monitored for 5–10 min until it became stable at 10 MΩ or less. Data were acquired from isolated vagal sensory neurons of mice in Axopatch 1D amplifier (Molecular Devices) filtered at 1 kHz. Signals were digitised in analogue-to-digital converter (Axon Digidata 1322A; Molecular Devices), and analysed on a computer running pCLAMP 10 software (Molecular Devices).
All neurons collected in retrograde tracing studies and used to assess calcium response and patch-clamp recording were picked up by the UnipicK + system (NeuroInDx) immediately after each measurement. […] In the retrograde tracer studies, percentage of stomach-innervating NG neurons expressing Ghsr or Glp1r were analysed. […]

[2] = Pharmacokinetics analysis: plasma profiles of ghrelin and GLP-1 in rats; settings: i.v. into femoral vein, peptide administered first (GLP-1 3 nmol, ghrelin 1.5 nmol), GLP-1 by active ELISA, ghrelin by enzyme immunoassay
Experimental: Blood was withdrawn from the right jugular vein at: 1, 2.5, 5, 10, 20, 30, 32.5, 35, 40, 50, and 60 min after the first injection. Blood was collected into tubes containing 1.25 mg EDTA and aprotinin (500 kallikrein-inhibiting units/ml blood) (Wako Pure Chemical Industries), and all samples were centrifuged within 2 h of collection. […] For ghrelin assay, 1 M HCl (100 µl/ml) was added to the plasma. All samples were stored at − 70 °C until analysis.

[3] = test system: mice; test: Feeding experiments in mice (1-h food intake); format: in vivo, mouse; settings: for food intake, GLP-1 preadministration before ghrelin: GLP-1 3 nmol i.p. 30 min before ghrelin 1.5 nmol i.p., n = 8
[4] = test system: Fos expression in NG, NTS and ARC neurons; test: Fos immunohistochemical staining (NG, NTS, ARC); format: in vivo, mouse; settings: mice
Experimental: The NG and brain were removed, fixed overnight in a fixative solution containing 4% PFA, cryoprotected in 0.1 M PB containing 20% sucrose and embedded in Tissue-Tek O.C.T. compound. The 10 µm sections were mounted on slides permeabilized with 0.3% triton X-100 in PBS (PBS-T). After permeabilization, antigens were retrieved by heating the sections in an autoclave for 1 h at 70 °C with a Histo VT one (Nakalai Teaque, Kyoto, Japan). All sections were blocked with 5% goat-serum in PBS-T. Three specimens each of NG, NTS and ARC were incubated for 48 h at 4 °C with c-Fos antiserum (Supplementary Table S1), then incubated for 1 h with Alexa Fluor 488- (NTS and ARC) or 594- (NG) conjugated anti-rabbit IgG at room temperature (Supplementary Table S1). To stain nuclei of the neurons, the specimens from NG were incubated with Alexa Fluor 488-conjugated Anti-NeuN IgG (Supplementary Table S1) at RT for 1 h, and the specimens from NTS and ARC were incubated overnight with Alexa Fluor 555-conjugated anti-NeuN IgG (Supplementary Table S1) at 4 °C. Images of immunofluorescence staining were observed using a Nikon C2 + confocal laser scanning microscope (Nikon, Tokyo, Japan). Fos-positive neurons in three specimens from each animal were counted using ImageJ.

[5] = test system: NG neurons; test: Calcium response in single neurons isolated from NG (Fura-2); format: cell-based, mouse
Experimental: Bilateral NGs resected from mice were immersed in hibernateA media (BrainBits). Each ganglion was cut into five pieces, placed in HibernateA minus Ca^2+ media (BrainBits) containing 1 mg/ml collagenase/dispase (Roche Diagnostics) and incubated for 90 min at 37 °C. Neurons were dispersed by gentle titration through pipettes and they were washed three times with fresh NbActive4 media (BrainBits) and plated onto poly-D-lysine/laminin (BD Bioscience)-coated coverslips, followed by incubation (5% CO2 in air at 37 °C) for 24 h. Cultures were rinsed in 10 mM phosphate buffered saline (PBS) and fixed with 4% paraformaldehyde (PFA) in phosphate buffer (PB). Ganglion neurons were incubated with the first primary antibodies; anti-GLP-1R or anti-GHSR at 4 °C overnight, and then with the second primary antibodies; anti-GHSR or anti-Pan Neuronal Marker (Supplementary Table S1) at 4 °C overnight. They were then reacted with corresponding Alexa Fluor 488- or 594-conjugated secondary IgG (Supplementary Table S1) at RT for 1 h. Neurons were observed under a fluorescence microscope (Olympus).
Ca^2+ imaging was performed under continuous perfusion of NG neurons with Krebs–Ringer-Henseleit buffer (Composition in mmol L^−1: NaCl 119, KCl 4.74, CaCl2 2.54, MgCl2 1.19, KH2PO4 1.19, NaHCO3 25, HEPES 10, pH 7.4) at a flow rate of 600 μl/min at 37 °C. NG neurons were loaded with 1 µM Fura-2 acetoxymethyl ester (Dojindo Labs) in NbActive4 media at 37 °C for 30 min. For Ca^2+ measurements in an integrated fluorescence microscope (Keyence BZ-X700), images were captured at 10-s intervals; 340- and 380-nm excitation filters were used for Fura-2-AM dual-wavelength excitation ratio imaging. NG neurons were stimulated with 10 nM either ghrelin or GLP-1, and 10 min later stimulated with the other peptide. At the end of experiments, cells were exposed to 100 mM KCl (Nacalai Tesque) for 2 min. […] All data were expressed as percent changes from the average of the 340/380 fluorescence ratio in response to ghrelin or GLP-1.
All neurons collected in retrograde tracing studies and used to assess calcium response and patch-clamp recording were picked up by the UnipicK + system (NeuroInDx) immediately after each measurement. RNA was isolated from single neurons with PicoPure RNA Isolation Kit (Applied Biosystems). qRT-PCR (primer sets, Supplementary Table S2) was conducted with SYBR Premix Ex Taq (2 ×) (Takara Bio Inc.) on a Thermal Cycler Dice Real-Time System II (Takara Bio Inc.). In the retrograde tracer studies, percentage of stomach-innervating NG neurons expressing Ghsr or Glp1r were analysed. In the patch-clamp recording, only Ghsr^+ Glp1r^+ neuron cells were used for the final analysis.

[6] = test system: gastric vagal afferent; test: Multi-unit nerve discharge of the gastric vagal afferent; format: in vivo, rat; settings: anaesthetised rats, i.v., n = 3
Experimental: Multi-unit neural discharge in gastric vagal afferent fibres was recorded extracellularly. Rats were anesthetised by an i.p. injection of urethane (1 g/kg) (Sigma-Aldrich). The electrophysiological study was performed entirely under anaesthetisation as described previously. After the gastric branch of the vagal nerve was visualised, we placed filaments isolated from the peripheral cut end of the ventral branch for the recording of afferent nerve activity via a pair of silver wire electrodes connected through an alternating current-coupled differential amplifier (ER-1; Cygnus Technology) to PowerLab (AD Instruments). The nerve activities were recorded and analysed using LabChart v8 software (AD Instruments). […] After the first administration, nerve discharges from the multi-unit afferents were analysed for 60 min.

[7] = test system: rats; test: Feeding experiments in rats (1-h food intake); format: in vivo, rat; settings: GLP-1 3 nmol i.v.
Experimental: First, rats fasted for 8 h (02:00–10:00) received an i.v. injection of human GLP-1 (3 nmol/100 µl saline, CS Bio) or saline at 10:00, then they were administered human ghrelin (1.5 nmol/100 µl saline, Peptide Institute) or saline injection at 10:30. Food intake was determined from 10:30 to 11:30. Secondly, rats fed ad libitum received an i.v. ghrelin (1.5 nmol/100 µl) or saline injection at 10:00 or 19:30, then they were administered GLP-1 (3 nmol/100 µl) or saline injection at 10:30 or 20:00. Food intake was measured from 10:30 to 11:30 or 20:00 to 21:00. Thirdly, mice fasted for 8 h (02:00–10:00) received an i.p. injection of ghrelin (1.5 nmol/100 µl saline) or saline at 10:00, then they were administered human GLP-1 (3 nmol/100 µl saline) or saline at 10:30 and 1 h food intake (10:30–11:30) was measured. Fourthly, Ghsr^−/− and their wild-type mice fasted for 12 h (22:00–10:00) were administered ghrelin (1.5 nmol/50 µl saline, i.p.) at 10:00, then they were administered GLP-1 (3 nmol/50 µl saline, i.p.) or saline injection at 10:30, and food intake was measured from 10:30 to 11:30. Finally, Glp1r ^−/− and their wild-type mice were administered GLP-1 (3 nmol/50 µl, i.p.) or saline at 10:00, subsequently given a ghrelin (1.5 nmol/50 µl, i.p.) or saline injection at 10:30, food intake was measured from 10:30 to 11:30. […]

In the case of `CC[C@H](C)[C@H](NC(=O)[C@H](Cc1ccccc1)NC(=O)[C@H](CCC(=O)O)NC(=O)[C@H](CCCCN)NC(=O)[C@H](C)NC(=O)[C@H](C)NC(=O)[C@H](CCC(N)=O)NC(=O)CNC(=O)[C@H](CCC(=O)O)NC(=O)[C@H](CC(C)C)NC(=O)[C@H](Cc1ccc(O)cc1)NC(=O)[C@H](CO)NC(=O)[C@H](CO)NC(=O)[C@@H](NC(=O)[C@H](CC(=O)O)NC(=O)[C@H](CO)NC(=O)[C@@H](NC(=O)[C@H](Cc1ccccc1)NC(=O)[C@@H](NC(=O)CNC(=O)[C@H](CCC(=O)O)NC(=O)[C@H](C)NC(=O)[C@@H](N)Cc1c[nH]cn1)[C@@H](C)O)[C@@H](C)O)C(C)C)C(=O)N[C@@H](C)C(=O)N[C@@H](Cc1c[nH]c2ccccc12)C(=O)N[C@@H](CC(C)C)C(=O)N[C@H](C(=O)N[C@@H](CCCCN)C(=O)NCC(=O)N[C@@H](CCCNC(=N)N)C(N)=O)C(C)C` [GLP-1, glucagon-like peptide 1], the “current in I/V relationship” value [1] is reported as “generated depolarizing current”, the “time at which plasma concentration returned to the base” value [2] is reported as 30 min and the “food intake, GLP-1 preadministration before ghrelin” value ([3]; Glp1r-/- mice fed ad libitum) is reported as “did not affect ghrelin-induced feeding”. For the same compound, the “feeding effect of the peptide administered second” value ([3]; mice, two peptides in a 60-min interval, peptide given 60 min after the first peptide) was “exhibited its proper effect”, the “food intake, GLP-1 preadministration before ghrelin” value ([3]; wild-type mice (of Glp1r-/-) fed ad libitum) was “abolished ghrelin-induced feeding” and the “ghrelin-induced Fos in the ARC after GLP-1 preadministration” value ([4]; GLP-1 3 nmol i.p. 30 min before ghrelin 1.5 nmol i.p., n = 4) was “abolished ghrelin-induced Fos in the ARC”. For the same compound, the “Fos-positive neurons in left NG” value ([4]; GLP-1 3 nmol i.p. alone, n = 3) was 70.5%, the “Fos-positive neurons in right NG” value ([4]; GLP-1 3 nmol i.p. alone, n = 3) was 71.0% and the “Fos in the NTS” value ([4]; GLP-1 3 nmol i.p. alone, n = 4) was “induced Fos in the NTS”. The “calcium response, GLP-1 after ghrelin” value ([5]; Glp1r+Ghsr+ neurons, 10 nM GLP-1 10 min after 10 nM ghrelin, n = 10) was “failed to evoke calcium response”, the calcium response ([5]; Glp1r+Ghsr+ neurons, 10 nM GLP-1 given first, n = 10) was “evoked calcium response” and the calcium response ([5]; Glp1r+Ghsr- neurons, 10 nM GLP-1) was “evoked calcium response”. For the same compound, the calcium response ([5]; Glp1r-Ghsr- neurons, 10 nM GLP-1) was “not”, the “gastric vagal afferent activity” value ([6]; ghrelin 1.5 nmol or GLP-1 1 nmol, peptide given first) was “enhanced it” and the “gastric vagal afferent activity, second peptide” value ([6]; peptide given 30 min after the other peptide (ghrelin 1.5 nmol, GLP-1 1 nmol)) was “GLP-1-enhanced activity was not observed”. For the same compound, the food intake ([7]; 8-h fasted rats, compared with saline, n = 8) was “significantly reduced food intake” and the food intake ([7]; rats fed ad libitum, dark phase (20:00-21:00), n = 6) was “suppressed feeding”.
